What is called Ki is a measure of affinity in units of concentration, obtained from inhibition or displacement. Low readings indicate higher affinity, high ones lower affinity.

Assay [1] has as its target Neuronal acetylcholine receptor subunit alpha-7 (Rattus norvegicus, UniProt Q05941). The format is cell membranes, Brain, Membrane.
Description: (§2) Displacement of [125I]-alpha-bungarotoxin from alpha7 nAChR in rat brain membrane after 3 hrs
Assay [2] addresses Neuronal acetylcholine receptor; alpha4/beta2 (Rattus norvegicus) (UniProt P09483+P12390). The experiment in a line: (§1) Displacement of [3H]cytisine from alpha4beta2 nAChR in rat brain membrane after 3 hrs. Type of assay: cell membranes. A general note: Displacement assays read how much labelled ligand stays bound in the presence of the test substance.
For assay [3], the target named is Neuronal acetylcholine receptor; alpha4/beta2 (Rattus norvegicus, UniProt P09483+P12390). The description is as §1. Type of assay: cell membranes.
Assay [4] deals with Neuronal acetylcholine receptor subunit alpha-7 (Rattus norvegicus) (UniProt Q05941). Conditions: Brain, Membrane.
Neuronal acetylcholine receptor subunit alpha-7 (Rattus norvegicus), sequence (Q05941 whole entry): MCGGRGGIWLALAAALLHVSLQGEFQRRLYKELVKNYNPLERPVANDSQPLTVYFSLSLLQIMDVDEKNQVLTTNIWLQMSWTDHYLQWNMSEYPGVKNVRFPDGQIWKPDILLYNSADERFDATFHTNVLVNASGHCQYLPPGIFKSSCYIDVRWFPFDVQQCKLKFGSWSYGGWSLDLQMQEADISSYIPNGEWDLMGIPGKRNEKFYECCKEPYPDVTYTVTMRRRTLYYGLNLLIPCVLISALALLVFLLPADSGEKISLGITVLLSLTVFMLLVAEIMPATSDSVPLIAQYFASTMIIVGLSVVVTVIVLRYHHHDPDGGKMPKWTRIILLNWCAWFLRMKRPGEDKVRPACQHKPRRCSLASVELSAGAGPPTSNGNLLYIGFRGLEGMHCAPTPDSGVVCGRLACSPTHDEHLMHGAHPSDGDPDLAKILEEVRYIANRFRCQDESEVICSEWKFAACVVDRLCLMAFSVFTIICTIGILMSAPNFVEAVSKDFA
Description: as §2

Neuronal acetylcholine receptor subunit alpha-7, sequence (Q05941 whole entry): as above
Neuronal acetylcholine receptor; alpha4/beta2, sequence (P09483 whole entry): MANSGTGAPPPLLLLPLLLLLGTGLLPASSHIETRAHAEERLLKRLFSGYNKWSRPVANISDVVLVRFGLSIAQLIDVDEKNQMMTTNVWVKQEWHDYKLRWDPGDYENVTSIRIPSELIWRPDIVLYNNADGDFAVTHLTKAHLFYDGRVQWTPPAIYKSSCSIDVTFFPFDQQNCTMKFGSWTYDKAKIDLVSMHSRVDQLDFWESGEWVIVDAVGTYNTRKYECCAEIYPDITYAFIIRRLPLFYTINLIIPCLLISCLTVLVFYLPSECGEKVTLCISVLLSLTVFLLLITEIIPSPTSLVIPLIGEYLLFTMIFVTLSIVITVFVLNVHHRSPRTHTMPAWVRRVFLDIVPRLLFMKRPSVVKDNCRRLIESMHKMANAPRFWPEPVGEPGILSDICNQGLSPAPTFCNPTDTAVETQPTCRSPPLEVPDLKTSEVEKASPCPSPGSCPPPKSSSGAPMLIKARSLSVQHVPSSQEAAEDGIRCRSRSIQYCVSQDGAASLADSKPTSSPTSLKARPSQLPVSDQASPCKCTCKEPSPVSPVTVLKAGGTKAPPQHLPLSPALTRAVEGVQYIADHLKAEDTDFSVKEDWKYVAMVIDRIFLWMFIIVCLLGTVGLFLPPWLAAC
Neuronal acetylcholine receptor; alpha4/beta2, sequence (P12390 whole entry): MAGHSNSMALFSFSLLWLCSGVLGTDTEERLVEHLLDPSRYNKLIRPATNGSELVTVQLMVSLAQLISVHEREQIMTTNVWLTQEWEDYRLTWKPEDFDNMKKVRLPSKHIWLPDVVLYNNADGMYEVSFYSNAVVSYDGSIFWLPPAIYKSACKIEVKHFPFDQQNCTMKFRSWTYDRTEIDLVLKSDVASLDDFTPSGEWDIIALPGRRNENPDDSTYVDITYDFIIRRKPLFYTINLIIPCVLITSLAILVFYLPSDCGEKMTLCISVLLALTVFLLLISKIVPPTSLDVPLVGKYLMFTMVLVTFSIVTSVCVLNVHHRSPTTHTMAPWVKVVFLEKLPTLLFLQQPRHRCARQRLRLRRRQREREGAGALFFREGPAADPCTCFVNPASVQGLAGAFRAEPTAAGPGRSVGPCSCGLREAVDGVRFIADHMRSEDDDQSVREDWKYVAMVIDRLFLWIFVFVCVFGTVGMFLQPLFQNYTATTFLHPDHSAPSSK

On to `COc1cccc(/C=C2\CCCN=C2c2cccnc2)c1`, for which the inhibition constant Ki is 0.46 µM in assay [1], 0.072 µM in assay [2], 1.18 µM in assay [3] and 0.337 µM in assay [4].

For `C(=C1/CCCN=C1c1cccnc1)/c1ccc(-n2ccnn2)cc1`, the Ki came to 0.284 µM in assay [2] and 0.072 µM in assay [4].

With `CNc1ccc(/C=C2\CCCN=C2c2cccnc2)cc1`, the Ki turned out to be 0.05 µM in assay [1], 1.3 µM in assay [2], 0.05 µM in assay [3] and 1.3 µM in assay [4].

As to `CC(=O)Oc1ccccc1/C=C1\CCCN=C1c1cccnc1`, the Ki in assay [1] came out at 0.57 µM; in assay [2], 0.155 µM; in assay [3] it was 0.7 µM; in assay [4], 0.244 µM.

With `N#Cc1ccc(/C=C2\CCCN=C2c2cccnc2)cc1`, the Ki in assay [1] was 2.3 µM; in assay [2], 0.09 µM; in assay [3], 1.23 µM; in assay [4], 0.362 µM.

`FC(F)(F)Oc1ccccc1/C=C1\CCCN=C1c1cccnc1`: the Ki in assay [2] stood at 0.246 µM; in assay [3], 1.76 µM.

In the case of `FC(F)(F)Oc1ccc(/C=C2\CCCN=C2c2cccnc2)cc1`, the Ki in assay [3] turned out to be 0.93 µM.

For the molecule `Clc1ccc(/C=C2\CCCN=C2c2cccnc2)cc1`, the inhibition constant (Ki) was 1.12 µM in assay [1], 0.013 µM in assay [2], 0.97 µM in assay [3] and 0.049 µM in assay [4].

As to `C(=C1/CCCN=C1c1cccnc1)/c1ccccc1` [3-BENZYLIDENEANABASEINE], the Ki in assay [1] was 0.6 µM; in assay [2], 0.071 µM; in assay [3] it was 0.85 µM; in assay [4], 0.222 µM.

Take `C(=C1/CCCN=C1c1cccnc1)/c1ccc2c(c1)OCO2`: the Ki in assay [2] amounted to 0.155 µM; in assay [4], 0.638 µM.

In the case of `COc1ccc2cc(/C=C3\CCCN=C3c3cccnc3)ccc2c1`, the Ki was 0.222 µM in assay [2] and 0.432 µM in assay [4].

Take `Oc1ccc(/C=C2\CCCN=C2c2cccnc2)cc1`: the Ki amounted to 0.36 µM in assay [1], 0.347 µM in assay [2], 0.45 µM in assay [3] and 0.444 µM in assay [4].

As for `CCCc1ccc(/C=C2\CCCN=C2c2cccnc2)cc1`, the Ki turned out to be 0.28 µM in assay [1], 0.051 µM in assay [2], 0.89 µM in assay [3] and 0.553 µM in assay [4].

With `C(=C1/CCCN=C1c1cccnc1)/c1ccc(N2CCOCC2)cc1`, the Ki stood at 0.3 µM in assay [1], 0.553 µM in assay [2], 0.28 µM in assay [3] and 0.523 µM in assay [4].

Consider `CCN(CC)c1ccc(/C=C2\CCCN=C2c2cccnc2)c(O)c1`, for which the Ki in assay [1] turned out to be 0.05 µM; in assay [2], 0.886 µM; in assay [3], 0.13 µM; in assay [4], 1.3 µM.

With `OCCN(CCO)c1ccc(/C=C2\CCCN=C2c2cccnc2)cc1`, the Ki was 0.19 µM in assay [1], 0.796 µM in assay [2], 0.16 µM in assay [3] and 0.721 µM in assay [4].

In the case of `CC(=O)Oc1ccc(/C=C2\CCCN=C2c2cccnc2)cc1`, the Ki in assay [1] was 0.17 µM; in assay [2], 0.602 µM; in assay [3], 0.25 µM; in assay [4], 0.77 µM.

Take `COc1ccc(/C=C2\CCCN=C2c2cccnc2)c(OC)c1` [GTS-21]: the Ki in assay [1] amounted to 0.13 µM; in assay [2], 0.602 µM; in assay [3] it was 0.25 µM; in assay [4], 0.886 µM.

As to `COc1ccc(/C=C2\CCCN=C2c2cccnc2)c(OC(C)=O)c1`, the Ki in assay [1] was determined as 0.3 µM; in assay [2], 0.114 µM; in assay [3] it was 0.77 µM; in assay [4], 0.523 µM.

Turning to `COc1ccc(/C=C2\CCCN=C2c2cccnc2)c(O)c1`, the Ki in assay [1] came out at 0.32 µM; in assay [2], 0.409 µM; in assay [3], 0.39 µM; in assay [4], 0.495 µM.

Regarding `CN(C)c1ccc(/C=C2\CCCN=C2c2cccnc2)cc1`, the Ki in assay [1] came out at 0.08 µM; in assay [2] it was 0.77 µM; in assay [3], 0.17 µM; in assay [4], 1.1 µM.

For the molecule `Cc1ccc(/C=C2\CCCN=C2c2cccnc2)cc1`, the Ki in assay [1] stood at 0.436 µM; in assay [2], 0.004 µM; in assay [3], 0.99 µM; in assay [4] it was 0.361 µM.

In the case of `FC(F)Oc1ccc(/C=C2\CCCN=C2c2cccnc2)cc1`, the Ki in assay [1] came out at 1.01 µM; in assay [2], 0.064 µM; in assay [3], 1.16 µM; in assay [4], 0.004 µM.

In the case of `Cc1cc(C)c(/C=C2\CCCN=C2c2cccnc2)c(C)c1`, the Ki in assay [1] amounted to 1.51 µM; in assay [2], 0.284 µM; in assay [3], 0.52 µM; in assay [4], 0.179 µM.

The molecule `FC(F)Oc1ccccc1/C=C1\CCCN=C1c1cccnc1` returned a Ki in assay [3] of 1.41 µM.

Turning to `CCC(CC)Oc1cc(OC)ccc1/C=C1\CCCN=C1c1cccnc1`, the Ki in assay [1] came to 0.05 µM; in assay [2], 0.367 µM; in assay [3] it was 0.43 µM; in assay [4], 1.3 µM.

`COc1cc(/C=C2\CCCN=C2c2cccnc2)cc(OC)c1OC`: the Ki is 3.48 µM in assay [1], 0.669 µM in assay [2], 4.67 µM in assay [3] and 0.542 µM in assay [4].

Turning to `COc1ccc(/C=C2\CCCN=C2c2cccnc2)c(OC(C)C)c1`, the Ki in assay [1] was found to be 0.07 µM; in assay [2] it was 0.77 µM; in assay [3] it was 0.17 µM; in assay [4] it was 1.16 µM.

Regarding `CCCCOc1ccc(/C=C2\CCCN=C2c2cccnc2)cc1`, the Ki in assay [3] came to 1.96 µM. That is a single-digit micromolar value.

As to `CC(=O)Nc1ccc(/C=C2\CCCN=C2c2cccnc2)cc1`, the Ki in assay [1] amounted to 0.24 µM; in assay [2], 0.42 µM; in assay [3], 0.38 µM; in assay [4] it was 0.62 µM.

On to `Cc1cc(O)cc(C)c1/C=C1\CCCN=C1c1cccnc1`, for which the inhibitory constant (Ki) in assay [1] is 5.49 µM; in assay [2] it was 0.174 µM; in assay [3] it was 0.67 µM; in assay [4], 0.74 µM.

As to `CC(=O)c1ccc(/C=C2\CCCN=C2c2cccnc2)cc1`, in assay [3], the Ki was 4.49 µM. This counts as single-digit micromolar.

Turning to `CC(C)(C)C(=O)Oc1ccccc1/C=C1\CCCN=C1c1cccnc1`, the Ki in assay [1] was found to be 0.65 µM; in assay [2], 0.158 µM; in assay [3] it was 1.44 µM; in assay [4], 0.187 µM.

As to `CC(C)(C)C(=O)Oc1ccc(/C=C2\CCCN=C2c2cccnc2)cc1`, the Ki in assay [1] stood at 0.69 µM; in assay [2], 0.081 µM; in assay [3] it was 0.83 µM; in assay [4] it was 0.161 µM.

Turning to `COc1cc(OC)c(/C=C2\CCCN=C2c2cccnc2)c(OC)c1`, the Ki in assay [1] was determined as 0.18 µM; in assay [2], 1.22 µM; in assay [3], 0.06 µM; in assay [4], 0.745 µM.

With `C(=C1/CCCN=C1c1cccnc1)/c1ccc2c(c1)OCCO2`, the figures for the Ki in assay [2] and in assay [4] were 0.284 µM and 0.699 µM, respectively.

Consider `Oc1cccc(/C=C2\CCCN=C2c2cccnc2)c1`, for which the Ki amounted to 0.15 µM in assay [1], 0.068 µM in assay [2], 1.17 µM in assay [3] and 0.824 µM in assay [4].

Take `CSc1ccc(/C=C2\CCCN=C2c2cccnc2)cc1`: the Ki in assay [1] was found to be 0.25 µM; in assay [2], 0.046 µM; in assay [3], 0.9 µM; in assay [4], 0.602 µM.

For the molecule `Oc1ccc(/C=C2\CCCN=C2c2cccnc2)c(O)c1`, the Ki in assay [1] was 0.2 µM; in assay [2], 0.678 µM; in assay [3], 0.21 µM; in assay [4] it was 0.699 µM.

`Nc1ccc(/C=C2\CCCN=C2c2cccnc2)cc1`: the Ki in assay [1] stood at 0.05 µM; in assay [2], 0.921 µM; in assay [3], 0.12 µM; in assay [4] it was 1.3 µM.

`COc1ccc(/C=C2\CCCN=C2c2cccnc2)cc1`: the Ki was 0.57 µM in assay [1], 0.31 µM in assay [2], 0.49 µM in assay [3] and 0.244 µM in assay [4].

Turning to `Cc1cc(/C=C2\CCCN=C2c2cccnc2)cc(C)c1O`, the Ki in assay [1] turned out to be 0.53 µM; in assay [2], 0.444 µM; in assay [3], 0.36 µM; in assay [4], 0.276 µM.

For `CC(C)(C)Oc1ccc(/C=C2\CCCN=C2c2cccnc2)cc1`, the Ki in assay [1] is 2.23 µM; in assay [2], 0.336 µM; in assay [3], 2.17 µM; in assay [4] it was 0.348 µM.

With `C(=C1/CCCN=C1c1cccnc1)/c1cc2ccccc2o1`, the Ki in assay [2] is 0.772 µM; in assay [4] it was 0.823 µM.
